Each block holds one compound with its values, some of them ahead of it.
Legend:
Experiment in all cases: radiometric filter-binding kinase assay, Kinase HotSpot
Conditions in all cases: compound 0.5 µM; ATP 10 µM
AKT2 (human) = AKT2 (human) (UniProt P31751)
AURKB (human) = AURKB (human) (UniProt Q96GD4)
AXL (human) = AXL (human) (UniProt P30530)
CAMK4 (human) = CAMK4 (human) (UniProt Q16566)
CDK1 CCNA2 (human) = CDK1 CCNA2 (human) (UniProt P06493+P20248)
CDK9 CCNT1 (human) = CDK9 CCNT1 (human) (UniProt P50750+O60563)
Sequence of CDK9 CCNT1 (human) (O60563 whole entry, looked up): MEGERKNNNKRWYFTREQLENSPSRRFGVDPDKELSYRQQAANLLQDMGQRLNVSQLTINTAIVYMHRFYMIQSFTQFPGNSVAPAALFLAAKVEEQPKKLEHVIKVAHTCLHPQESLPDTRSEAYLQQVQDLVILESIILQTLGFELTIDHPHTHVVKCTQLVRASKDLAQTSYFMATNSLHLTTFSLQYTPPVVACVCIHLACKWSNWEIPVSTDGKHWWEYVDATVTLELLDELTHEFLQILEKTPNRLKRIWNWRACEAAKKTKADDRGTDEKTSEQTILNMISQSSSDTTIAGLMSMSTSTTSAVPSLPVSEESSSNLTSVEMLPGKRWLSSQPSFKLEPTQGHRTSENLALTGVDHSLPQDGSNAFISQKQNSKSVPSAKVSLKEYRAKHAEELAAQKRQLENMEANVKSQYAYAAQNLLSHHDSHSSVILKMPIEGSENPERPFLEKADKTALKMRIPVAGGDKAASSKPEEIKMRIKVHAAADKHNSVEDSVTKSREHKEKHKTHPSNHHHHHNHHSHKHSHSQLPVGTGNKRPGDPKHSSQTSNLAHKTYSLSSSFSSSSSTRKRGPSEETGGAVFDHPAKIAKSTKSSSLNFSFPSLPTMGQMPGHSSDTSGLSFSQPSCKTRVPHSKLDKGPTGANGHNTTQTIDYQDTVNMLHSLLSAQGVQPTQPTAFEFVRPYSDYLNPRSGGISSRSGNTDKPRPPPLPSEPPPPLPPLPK
Sequence of CDK9 CCNT1 (human) (P50750 whole entry, looked up): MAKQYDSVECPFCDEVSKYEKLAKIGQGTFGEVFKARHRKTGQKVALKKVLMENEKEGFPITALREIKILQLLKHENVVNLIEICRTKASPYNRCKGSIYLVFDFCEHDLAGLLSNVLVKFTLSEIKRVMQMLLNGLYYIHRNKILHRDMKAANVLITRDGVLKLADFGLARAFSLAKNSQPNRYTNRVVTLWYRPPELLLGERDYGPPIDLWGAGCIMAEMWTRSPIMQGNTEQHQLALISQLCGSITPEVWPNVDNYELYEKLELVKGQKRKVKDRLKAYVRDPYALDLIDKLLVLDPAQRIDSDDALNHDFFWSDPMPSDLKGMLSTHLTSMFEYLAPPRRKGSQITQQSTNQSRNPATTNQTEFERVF

CSNK1A1 (human) = CSNK1A1 (human) (UniProt P48729)
CSNK1G3 (human) = CSNK1G3 (human) (UniProt Q9Y6M4)
DYRK3 (human) = DYRK3 (human) (UniProt O43781)
Sequence of DYRK3 (human) (O43781 whole entry, looked up): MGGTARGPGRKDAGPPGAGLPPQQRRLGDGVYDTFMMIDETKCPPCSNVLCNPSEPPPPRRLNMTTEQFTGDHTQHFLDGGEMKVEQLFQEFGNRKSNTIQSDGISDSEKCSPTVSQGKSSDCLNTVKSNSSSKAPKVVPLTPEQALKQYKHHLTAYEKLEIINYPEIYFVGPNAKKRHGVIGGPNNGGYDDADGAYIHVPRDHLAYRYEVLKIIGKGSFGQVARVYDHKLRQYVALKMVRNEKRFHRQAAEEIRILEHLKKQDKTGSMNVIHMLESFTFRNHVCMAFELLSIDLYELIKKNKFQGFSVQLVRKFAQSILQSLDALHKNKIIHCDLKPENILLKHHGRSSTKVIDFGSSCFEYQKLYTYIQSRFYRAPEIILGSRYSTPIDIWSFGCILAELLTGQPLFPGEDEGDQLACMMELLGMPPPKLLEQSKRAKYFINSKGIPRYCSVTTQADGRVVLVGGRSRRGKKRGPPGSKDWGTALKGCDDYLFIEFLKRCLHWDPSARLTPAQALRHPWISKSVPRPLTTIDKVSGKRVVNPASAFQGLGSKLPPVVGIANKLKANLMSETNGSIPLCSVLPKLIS

EPHA4 (human) = EPHA4 (human) (UniProt P54764)
EPHB1 (human) = EPHB1 (human) (UniProt P54762)
ERBB2 (human) = ERBB2 (human) (UniProt P04626)
FER (human) = FER (human) (UniProt P16591)
HIPK1 (human) = HIPK1 (human) (UniProt Q86Z02)
Sequence of HIPK1 (human) (Q86Z02 whole entry, looked up): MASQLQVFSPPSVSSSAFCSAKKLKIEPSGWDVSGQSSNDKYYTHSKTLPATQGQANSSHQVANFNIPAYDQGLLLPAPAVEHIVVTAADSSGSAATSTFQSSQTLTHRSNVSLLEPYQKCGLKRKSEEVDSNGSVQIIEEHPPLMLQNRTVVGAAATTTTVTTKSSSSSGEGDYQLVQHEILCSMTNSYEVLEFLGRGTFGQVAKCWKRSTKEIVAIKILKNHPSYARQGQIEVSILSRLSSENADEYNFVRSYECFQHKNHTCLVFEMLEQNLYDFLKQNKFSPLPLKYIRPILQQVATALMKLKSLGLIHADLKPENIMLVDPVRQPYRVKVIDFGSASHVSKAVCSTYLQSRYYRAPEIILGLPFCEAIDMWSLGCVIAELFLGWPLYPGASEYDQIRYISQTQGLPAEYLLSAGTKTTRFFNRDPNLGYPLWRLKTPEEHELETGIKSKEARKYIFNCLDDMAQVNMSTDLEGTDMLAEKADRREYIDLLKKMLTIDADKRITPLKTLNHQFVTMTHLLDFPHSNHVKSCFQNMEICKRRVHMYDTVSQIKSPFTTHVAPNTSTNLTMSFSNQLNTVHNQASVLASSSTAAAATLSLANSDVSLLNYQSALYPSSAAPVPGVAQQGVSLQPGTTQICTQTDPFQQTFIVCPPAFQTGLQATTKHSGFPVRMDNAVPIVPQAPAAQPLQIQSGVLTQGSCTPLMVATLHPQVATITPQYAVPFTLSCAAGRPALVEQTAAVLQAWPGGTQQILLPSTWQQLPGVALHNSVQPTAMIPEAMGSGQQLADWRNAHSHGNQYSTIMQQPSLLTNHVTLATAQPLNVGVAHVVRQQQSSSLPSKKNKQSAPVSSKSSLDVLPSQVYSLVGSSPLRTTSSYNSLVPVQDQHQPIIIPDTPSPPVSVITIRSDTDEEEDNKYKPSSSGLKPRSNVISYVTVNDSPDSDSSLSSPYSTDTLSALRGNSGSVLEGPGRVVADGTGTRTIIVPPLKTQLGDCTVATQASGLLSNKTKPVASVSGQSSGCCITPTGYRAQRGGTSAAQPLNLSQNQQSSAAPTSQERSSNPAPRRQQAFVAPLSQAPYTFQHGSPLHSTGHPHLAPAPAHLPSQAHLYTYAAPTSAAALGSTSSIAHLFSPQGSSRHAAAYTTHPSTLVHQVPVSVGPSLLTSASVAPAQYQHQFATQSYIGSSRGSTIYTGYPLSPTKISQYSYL

HIPK3 (human) = HIPK3 (human) (UniProt Q9H422)
IRAK1 (human) = IRAK1 (human) (UniProt P51617)
Sequence of IRAK1 (human) (P51617 whole entry, looked up): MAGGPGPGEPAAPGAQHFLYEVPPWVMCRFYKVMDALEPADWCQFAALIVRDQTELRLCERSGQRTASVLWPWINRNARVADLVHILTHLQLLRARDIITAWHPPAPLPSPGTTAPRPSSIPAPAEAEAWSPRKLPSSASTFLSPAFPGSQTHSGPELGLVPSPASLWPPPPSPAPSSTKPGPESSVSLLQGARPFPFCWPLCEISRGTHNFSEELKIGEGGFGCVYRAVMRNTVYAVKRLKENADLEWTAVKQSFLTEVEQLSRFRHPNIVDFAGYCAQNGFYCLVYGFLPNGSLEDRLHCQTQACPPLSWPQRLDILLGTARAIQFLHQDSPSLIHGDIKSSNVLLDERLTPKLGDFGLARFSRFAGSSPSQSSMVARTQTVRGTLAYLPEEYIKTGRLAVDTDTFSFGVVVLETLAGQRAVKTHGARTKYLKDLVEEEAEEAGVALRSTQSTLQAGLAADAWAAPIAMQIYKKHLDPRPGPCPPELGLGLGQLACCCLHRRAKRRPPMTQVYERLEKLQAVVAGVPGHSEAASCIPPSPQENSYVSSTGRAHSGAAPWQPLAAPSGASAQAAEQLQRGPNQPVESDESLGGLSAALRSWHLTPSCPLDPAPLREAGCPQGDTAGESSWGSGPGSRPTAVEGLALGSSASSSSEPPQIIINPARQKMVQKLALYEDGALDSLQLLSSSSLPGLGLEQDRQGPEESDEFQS

[1] = target: JAK1 JH1 catalytic (human) (UniProt P23458)
JAK3 JH1 JH2 (human) = JAK3 JH1 JH2 (human) (UniProt P52333)
MAP3K10 (human) = MAP3K10 (human) (UniProt Q02779)
MAPK13 (human) = MAPK13 (human) (UniProt O15264)
MAPK8 (human) = MAPK8 (human) (UniProt P45983)
MAPKAPK5 (human) = MAPKAPK5 (human) (UniProt Q8IW41)
MARK1 (human) = MARK1 (human) (UniProt Q9P0L2)
MINK1 (human) = MINK1 (human) (UniProt Q8N4C8)
MST4 (human) = MST4 (human) (UniProt Q9P289)
NEK7 (human) = NEK7 (human) (UniProt Q8TDX7)
OXSR1 (human) = OXSR1 (human) (UniProt O95747)
PAK1 (human) = PAK1 (human) (UniProt Q13153)
PAK4 (human) = PAK4 (human) (UniProt O96013)
PDGFRA (human) = PDGFRA (human) (UniProt P16234)
PDPK1 (human) = PDPK1 (human) (UniProt O15530)
PHKG2 (human) = PHKG2 (human) (UniProt P15735)
PIM2 (human) = PIM2 (human) (UniProt Q9P1W9)
PLK1 (human) = PLK1 (human) (UniProt P53350)
Sequence of PLK1 (human) (P53350 whole entry, looked up): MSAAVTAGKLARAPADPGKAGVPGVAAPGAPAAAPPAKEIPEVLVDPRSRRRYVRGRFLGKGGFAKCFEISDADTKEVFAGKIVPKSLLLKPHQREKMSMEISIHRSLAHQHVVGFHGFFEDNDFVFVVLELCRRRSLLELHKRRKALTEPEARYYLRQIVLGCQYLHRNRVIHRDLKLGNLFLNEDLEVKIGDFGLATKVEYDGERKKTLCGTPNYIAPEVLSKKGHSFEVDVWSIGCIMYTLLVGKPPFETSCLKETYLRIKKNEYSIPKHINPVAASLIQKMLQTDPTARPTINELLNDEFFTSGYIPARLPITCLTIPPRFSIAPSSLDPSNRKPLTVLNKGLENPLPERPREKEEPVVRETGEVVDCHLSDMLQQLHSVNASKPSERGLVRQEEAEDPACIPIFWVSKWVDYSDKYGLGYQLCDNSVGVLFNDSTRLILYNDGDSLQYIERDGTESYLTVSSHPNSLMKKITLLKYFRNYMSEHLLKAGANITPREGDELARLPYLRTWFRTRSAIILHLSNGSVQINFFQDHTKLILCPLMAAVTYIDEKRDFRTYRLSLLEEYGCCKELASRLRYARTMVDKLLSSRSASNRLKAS

PLK2 (human) = PLK2 (human) (UniProt Q9NYY3)
PRKCB1 (human) = PRKCB1 (human) (UniProt P05771)
PRKCZ (human) = PRKCZ (human) (UniProt Q05513)
RET (human) = RET (human) (UniProt P07949)
RIPK2 (human) = RIPK2 (human) (UniProt O43353)
SRMS (human) = SRMS (human) (UniProt Q9H3Y6)
STK11 (human) = STK11 (human) (UniProt Q15831)
Sequence of STK11 (human) (Q15831 whole entry, looked up): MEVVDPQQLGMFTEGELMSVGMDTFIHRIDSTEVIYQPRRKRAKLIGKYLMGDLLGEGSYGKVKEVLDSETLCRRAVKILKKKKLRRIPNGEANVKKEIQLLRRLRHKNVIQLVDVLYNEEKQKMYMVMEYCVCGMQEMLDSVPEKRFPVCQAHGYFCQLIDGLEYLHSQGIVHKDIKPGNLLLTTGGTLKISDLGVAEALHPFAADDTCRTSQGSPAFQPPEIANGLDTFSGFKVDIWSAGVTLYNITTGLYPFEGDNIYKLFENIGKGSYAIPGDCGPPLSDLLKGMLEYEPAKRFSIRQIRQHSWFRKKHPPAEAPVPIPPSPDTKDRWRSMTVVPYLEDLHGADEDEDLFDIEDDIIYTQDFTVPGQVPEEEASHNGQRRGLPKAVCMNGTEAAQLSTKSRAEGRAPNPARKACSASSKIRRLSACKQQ

STK24 (human) = STK24 (human) (UniProt Q9Y6E0)

Sequence of AURKB (human) (Q96GD4 whole entry, looked up): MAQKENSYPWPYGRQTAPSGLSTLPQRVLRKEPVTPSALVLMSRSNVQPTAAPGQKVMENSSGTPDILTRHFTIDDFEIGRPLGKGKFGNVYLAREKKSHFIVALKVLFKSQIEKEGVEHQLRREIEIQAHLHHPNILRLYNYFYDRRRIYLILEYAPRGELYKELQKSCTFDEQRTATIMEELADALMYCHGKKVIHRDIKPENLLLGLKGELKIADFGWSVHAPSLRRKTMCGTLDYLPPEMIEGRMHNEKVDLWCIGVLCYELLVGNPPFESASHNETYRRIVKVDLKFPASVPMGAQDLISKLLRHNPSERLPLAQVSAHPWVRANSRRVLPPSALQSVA

residual activity (AKT2 (human)): 90.1%
residual activity (AURKB (human)): 27.4%
residual activity (AXL (human)): 42.7%
residual activity (CAMK4 (human)): 93.6%
residual activity (CDK1 CCNA2 (human)): 56.7%
residual activity (CDK9 CCNT1 (human)): 52.5%
residual activity (CSNK1A1 (human)): 84.8%
residual activity (CSNK1G3 (human)): 90.7%
residual activity (DYRK3 (human)): 105%
residual activity (EPHA4 (human)): 77.9%
residual activity (EPHB1 (human)): 65.9%
residual activity (ERBB2 (human)): 95.3%
residual activity (FER (human)): 28.8%
residual activity (HIPK1 (human)): 96%
residual activity (HIPK3 (human)): 66.2%
residual activity (IRAK1 (human)): 34.5%
residual activity [1]: 25.9%
residual activity (JAK3 JH1 JH2 (human)): 16.9%
residual activity (MAP3K10 (human)): 86.9%
residual activity (MAPK13 (human)): 94.8%
residual activity (MAPK8 (human)): 101%
residual activity (MAPKAPK5 (human)): 86.8%
residual activity (MARK1 (human)): 60.5%
residual activity (MINK1 (human)): 21%
residual activity (MST4 (human)): 73.1%
residual activity (NEK7 (human)): 98.9%
residual activity (OXSR1 (human)): 98.6%
residual activity (PAK1 (human)): 71.3%
residual activity (PAK4 (human)): 84.5%
residual activity (PDGFRA (human)): 76.7%
residual activity (PDPK1 (human)): 83.3%
residual activity (PHKG2 (human)): 34.9%
residual activity (PIM2 (human)): 99.5%
residual activity (PLK1 (human)): 103%
residual activity (PLK2 (human)): 105%
residual activity (PRKCB1 (human)): 93.6%
residual activity (PRKCZ (human)): 98.5%
residual activity (RET (human)): 1.22%
residual activity (RIPK2 (human)): 62.8%
residual activity (SRMS (human)): 102%
residual activity (STK11 (human)): 5.77%
residual activity (STK24 (human)): 51.9%
SMILES: O=C1Nc2ccccc2/C1=C1/Nc2ccccc2/C1=N\OCCC(O)CO (stereo unspecified)

SMILES: O=C1NC(=O)C(c2c[nH]c3ccccc23)=C1c1c[nH]c2ccccc12
residual activity (AKT2 (human)): 102%
residual activity (AURKB (human)): 89.3%
residual activity (AXL (human)): 103%
residual activity (CAMK4 (human)): 100%
residual activity (CDK1 CCNA2 (human)): 96.3%
residual activity (CDK9 CCNT1 (human)): 89.9%
residual activity (CSNK1A1 (human)): 98.4%
residual activity (CSNK1G3 (human)): 89.9%
residual activity (DYRK3 (human)): 101%
residual activity (EPHA4 (human)): 87.6%
residual activity (EPHB1 (human)): 83.1%
residual activity (ERBB2 (human)): 94.3%
residual activity (FER (human)): 83.5%
residual activity (HIPK1 (human)): 102%
residual activity (HIPK3 (human)): 96%
residual activity (IRAK1 (human)): 89.6%
residual activity [1]: 101%
residual activity (JAK3 JH1 JH2 (human)): 63%
residual activity (MAP3K10 (human)): 79%
residual activity (MAPK13 (human)): 104%
residual activity (MAPK8 (human)): 95.1%
residual activity (MAPKAPK5 (human)): 119%
residual activity (MARK1 (human)): 90.6%
residual activity (MINK1 (human)): 83.4%
residual activity (MST4 (human)): 59.2%
residual activity (NEK7 (human)): 99.9%
residual activity (OXSR1 (human)): 86.3%
residual activity (PAK1 (human)): 83.5%
residual activity (PAK4 (human)): 102%
residual activity (PDGFRA (human)): 90.6%
residual activity (PDPK1 (human)): 96.7%
residual activity (PHKG2 (human)): 107%
residual activity (PIM2 (human)): 105%
residual activity (PLK1 (human)): 94.5%
residual activity (PLK2 (human)): 97.7%
residual activity (PRKCB1 (human)): 26.1%
residual activity (PRKCZ (human)): 96.2%
residual activity (RET (human)): 80.6%
residual activity (RIPK2 (human)): 97%
residual activity (SRMS (human)): 82.4%
residual activity (STK11 (human)): 107%
residual activity (STK24 (human)): 61.5%

SMILES: Oc1ccc(Nc2nc(-c3ccc(Cl)cc3)cs2)cc1
residual activity (AKT2 (human)): 96.4%
residual activity (AURKB (human)): 102%
residual activity (AXL (human)): 98.5%
residual activity (CAMK4 (human)): 99.7%
residual activity (CDK1 CCNA2 (human)): 91.2%
residual activity (CDK9 CCNT1 (human)): 87.8%
residual activity (CSNK1A1 (human)): 96.4%
residual activity (CSNK1G3 (human)): 103%
residual activity (DYRK3 (human)): 101%
residual activity (EPHA4 (human)): 104%
residual activity (EPHB1 (human)): 105%
residual activity (ERBB2 (human)): 96.9%
residual activity (FER (human)): 90.3%
residual activity (HIPK1 (human)): 100%
residual activity (HIPK3 (human)): 109%
residual activity (IRAK1 (human)): 123%
residual activity [1]: 97.1%
residual activity (JAK3 JH1 JH2 (human)): 92.2%
residual activity (MAP3K10 (human)): 100%
residual activity (MAPK13 (human)): 107%
residual activity (MAPK8 (human)): 100%
residual activity (MAPKAPK5 (human)): 96.8%
residual activity (MARK1 (human)): 93.7%
residual activity (MINK1 (human)): 103%
residual activity (MST4 (human)): 105%
residual activity (NEK7 (human)): 106%
residual activity (OXSR1 (human)): 88.8%
residual activity (PAK1 (human)): 99.4%
residual activity (PAK4 (human)): 102%
residual activity (PDGFRA (human)): 101%
residual activity (PDPK1 (human)): 101%
residual activity (PHKG2 (human)): 99.9%
residual activity (PIM2 (human)): 106%
residual activity (PLK1 (human)): 106%
residual activity (PLK2 (human)): 105%
residual activity (PRKCB1 (human)): 101%
residual activity (PRKCZ (human)): 105%
residual activity (RET (human)): 99%
residual activity (RIPK2 (human)): 96.4%
residual activity (SRMS (human)): 106%
residual activity (STK11 (human)): 91.1%
residual activity (STK24 (human)): 94.1%
